This passage reports inhibition results from patent publication US8927718B2, “Fused heterocyclic ring derivative and use thereof” (Takeda Pharmaceutical Company Limited, priority 2009, dated 2015).

T1 sequence (P56726 33-793): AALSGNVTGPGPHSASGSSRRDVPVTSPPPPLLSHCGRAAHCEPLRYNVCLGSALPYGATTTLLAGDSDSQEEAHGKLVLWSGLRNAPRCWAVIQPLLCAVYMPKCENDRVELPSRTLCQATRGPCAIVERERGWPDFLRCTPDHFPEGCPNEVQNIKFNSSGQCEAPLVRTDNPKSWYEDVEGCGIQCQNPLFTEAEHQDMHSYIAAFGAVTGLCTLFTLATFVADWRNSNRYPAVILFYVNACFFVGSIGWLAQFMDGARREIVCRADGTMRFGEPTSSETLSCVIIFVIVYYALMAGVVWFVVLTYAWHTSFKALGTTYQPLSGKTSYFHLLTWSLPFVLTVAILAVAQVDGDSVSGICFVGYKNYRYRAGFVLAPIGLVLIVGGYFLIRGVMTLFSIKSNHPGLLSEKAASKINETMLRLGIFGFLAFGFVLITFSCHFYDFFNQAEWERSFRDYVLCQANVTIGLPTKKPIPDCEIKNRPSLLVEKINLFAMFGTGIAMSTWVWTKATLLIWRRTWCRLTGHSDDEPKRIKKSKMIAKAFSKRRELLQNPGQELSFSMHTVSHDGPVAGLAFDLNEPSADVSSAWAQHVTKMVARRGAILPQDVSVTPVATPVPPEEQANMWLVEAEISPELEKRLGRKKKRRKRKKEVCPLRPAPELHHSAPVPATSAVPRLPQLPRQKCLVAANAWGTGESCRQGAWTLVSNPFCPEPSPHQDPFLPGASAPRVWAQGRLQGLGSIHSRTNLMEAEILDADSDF

This assay has as its target T1, Smo (Mus musculus, UniProt P56726).
T1 construct: endogenous in cells; host or cells: NIH-3T3 cells stably carrying the Gli luciferase reporter
Briefly: Gli reporter luciferase assay in NIH-3T3/Gli reporter cells stimulated with mouse Shh-N end fragment. It is filed as cell-based. The settings on record: NIH3T3, 1 μM compound, mouse Shh-N end fragment supernatant, 48 hr, luciferase activity, control without compound as 100, read-out: inhibitory rate (%) at 1 μM. Here is the method:
Gli reporter plasmid was constructed by inserting 8× Gli-binding site and chicken δ-crystalline promoter into the upstream of luc+ of pGL3 (Promega).
HEK293 cells were grown in D-MEM medium (Invitrogen) containing 10% fetal bovine serum in a 10 cm dish and pcDNA3.1/mShh-N was introduced into the cells using FuGENE6 (Roche Applied Science). Thereafter, the HEK293 cells were cultured in a carbon dioxide gas incubator at 37° C. for 24 hours, and the medium was exchanged with D-MEM medium (Invitrogen) containing 2% fetal bovine serum. After culturing for 48 hr, a culture supernatant containing recombinant type mouse Shh-N end fragment was obtained by filtration using a filter ([…]).
Using D-MEM (Invitrogen) containing 10% fetal bovine serum, expression plasmid pcDNA3.1 and Gli reporter plasmid (pGL3/δ-cry promoter, 8× Gli binding site) produced by the method of Experimental Example 1 were introduced into NIH-3T3 cells grown in a 10 cm dish by the use of FuGENE6 (Roche Applied Science).
After culture for 24 hr, the cells were recovered, suspended in D-MEM medium containing 10% fetal bovine serum and supplemented with Geneticin (Life Technologies Oriental, Inc.) to a final concentration of 500 μg/ml, diluted to 10^4 cells/ml, plated on a 96 well plate, and cultured in a carbon dioxide gas incubator at 37° C. to give Geneticin resistant transformed cell line. […]
NIH-3T3/Gli reporter cells cultured in D-MEM (Invitrogen) containing 10% fetal bovine serum were plated in a 96 well white plate at 1×10^4 cells/well, and cultured overnight in a carbon dioxide gas incubator at 37° C. […] Bright-Glo (Promega, 50 μl) was added, and the mixture was stirred, after which luciferase activity was measured by EnVision (PerkinElmer). The inhibition rate was calculated based on the luciferase activity of the control without addition of the compound as 100.
Take `CCc1c(C(=O)NC2CCN(C(=O)CO)CC2)n(C)c2cc(CC)n(CC(=O)c3ccccc3)c(=O)c12` [Example 1, 3,6-diethyl-N-[1-(hydroxyacetyl)piperidin-4-yl]-1-methyl-4-oxo-5-(2-oxo-2-phenylethyl)-4,5-dihydro-1H-pyrrolo[3,2-c]pyridine-2-carboxamide]: the inhibition at 1 µM is 100%.

Consider `CCNc1c(C(=O)NC2CCN(C(=O)CO)CC2)n(C)c2cc(CC)n(CC(=O)c3ccccc3)c(=O)c12` [Example 32, 6-ethyl-3-(ethylamino)-N-[1-(hydroxyacetyl)piperidin-4-yl]-1-methyl-4-oxo-5-(2-oxo-2-phenylethyl)-4,5-dihydro-1H-pyrrolo[3,2-c]pyridine-2-carboxamide], for which the inhibition at 1 µM amounted to 98%.

As for `C=Cc1c(C(=O)NC2CCN(C(=O)CO)CC2)n(C)c2cc(CC)n(CC(=O)c3ccccc3)c(=O)c12` [Example 2, 3-ethenyl-6-ethyl-N-[1-(hydroxyacetyl)piperidin-4-yl]-1-methyl-4-oxo-5-(2-oxo-2-phenylethyl)-4,5-dihydro-1H-pyrrolo[3,2-c]pyridine-2-carboxamide], the inhibition at 1 µM amounted to 100%.
